# Patent US20190133128A1, “Fungicidal pyridazinones” (FMC Corporation, priority 2017, published 2019)
# What was measured:
# Type in all cases: in vivo
# [1] = tested on: Plasmopara viticola; experiment: Test B: preventive spray on grape seedlings, grape downy mildew, disease rating; conditions: 250 ppm, 100 = 100% disease control, 0 = no control
# How it was run: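 Compounds were dissolved in acetone (3% of final volume) and suspended in 50/50 acetone/water with PEG400. They were sprayed at 250 ppm or another indicated rate to run-off on grape seedlings as a preventive treatment before downy mildew challenge, followed by disease rating.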
# [2] = tested on: Zymoseptoria tritici; experiment: Test E: preventive spray on wheat seedlings, wheat leaf blotch, visual disease rating; conditions: 250 ppm, 100 = 100% disease control, 0 = no control
# How it was run: (§1)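 Preventive foliar spray of wheat seedlings to run-off, at 250 ppm or other indicated rate. Compounds dissolved in acetone (3% of final volume), suspended in 50/50 acetone–water with PEG400 surfactant. Disease rated visually.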
# [3] = tested on: Erysiphe graminis f. sp. tritici; experiment: Test G: preventive spray on wheat seedlings, wheat powdery mildew, visual disease rating; conditions: 250 ppm, 100 = 100% disease control, 0 = no control
# How it was run: as §1
# [4] = tested on: Botrytis cinerea; experiment: Test C: preventive spray on tomato seedlings, gray mold, visual disease rating; conditions: 250 ppm, 100 = 100% disease control, 0 = no control
# How it was run: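 Tomato seedlings received a run-off spray, typically 250 ppm (or stated rate), ahead of gray mold inoculation and visual scoring. Test suspensions: acetone stock (3% of volume) diluted into 1:1 acetone/water containing PEG400.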
# [5] = tested on: Puccinia recondita f. sp. tritici; experiment: Test F: preventive spray on wheat seedlings, wheat leaf rust, visual disease rating; conditions: 250 ppm, 100 = 100% disease control, 0 = no control
# How it was run: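 Preventive test: wheat seedlings were sprayed to run-off with compound suspended in acetone/water 50/50 plus PEG400 (250 ppm or other indicated rate). One day later they received Puccinia recondita f. sp. tritici spores, and disease was scored visually.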
# [6] = tested on: Phakopsora pachyrhizi; experiment: Test A: preventive spray on soybean seedlings, Asian soybean rust, visual disease rating; conditions: 250 ppm, 100 = 100% disease control, 0 = no control
# [7] = tested on: Phytophthora infestans; experiment: whole plant or invertebrate; conditions: 250 ppm; tomato seedlings; 100 = 100% disease control, 0 = no control
smiles,measurement,setting,value
COC(=O)c1ccc(NC(=O)c2c(O)cnn(C)c2=O)cc1 [Compound 121],Test B disease control rating,[1],86%
same,Test E disease control rating,[2],14%
same,Test G disease control rating,[3],0%
same,Test C disease control rating,[4],0%
same,Test F disease control rating,[5],80%
same,Test A disease control rating,[6],0%
same,Test D disease control rating,[7],99%
Cn1ncc(OS(=O)(=O)Cc2ccccc2)c(C(=O)Nc2ccc(OC(F)(F)F)cc2)c1=O [Compound 116],Test B disease control rating,[1],99%
same,Test E disease control rating,[2],60%
same,Test G disease control rating,[3],0%
same,Test C disease control rating,[4],0%
same,Test F disease control rating,[5],97%
same,Test A disease control rating,[6],25%
same,Test D disease control rating,[7],0%
CNc1cnn(C)c(=O)c1C(=O)Nc1ccc(OC(F)(F)F)cc1 [Compound 146],Test B disease control rating,[1],10%
same,Test E disease control rating,[2],0%
same,Test G disease control rating,[3],0%
same,Test C disease control rating,[4],0%
same,Test F disease control rating,[5],0%
same,Test A disease control rating,[6],0%
same,Test D disease control rating,[7],0%
Cn1ncc(O)c(C(=O)Nc2ccc(C(F)(F)F)cc2Cl)c1=O [Compound 137],Test B disease control rating,[1],100%
same,Test E disease control rating,[2],30%
same,Test G disease control rating,[3],47%
same,Test C disease control rating,[4],0%
same,Test F disease control rating,[5],96%
same,Test A disease control rating,[6],0%
same,Test D disease control rating,[7],97%
CONc1cnn(C)c(=O)c1C(=O)Nc1ccc(OC(F)(F)F)cc1 [Compound 127],Test B disease control rating,[1],23%
same,Test E disease control rating,[2],27%
same,Test G disease control rating,[3],0%
same,Test C disease control rating,[4],0%
same,Test F disease control rating,[5],0%
same,Test A disease control rating,[6],0%
same,Test D disease control rating,[7],0%
Cn1ncc(O)c(C(=O)Nc2ccc(Cl)cc2F)c1=O [Compound 123],Test B disease control rating,[1],90%
same,Test E disease control rating,[2],91%
same,Test G disease control rating,[3],92%
same,Test C disease control rating,[4],63%
same,Test F disease control rating,[5],100%
same,Test A disease control rating,[6],81%
same,Test D disease control rating,[7],90%
COc1ccc(Cn2ncc(O)c(C(=O)Nc3ccc(OC(F)(F)F)cc3)c2=O)cc1 [Compound 115],Test B disease control rating,[1],0%
same,Test E disease control rating,[2],26%
same,Test G disease control rating,[3],0%
same,Test C disease control rating,[4],0%
same,Test F disease control rating,[5],68%
same,Test A disease control rating,[6],0%
same,Test D disease control rating,[7],0%
Cn1ncc(O)c(C(=O)Nc2cnc(Cl)cn2)c1=O [Compound 114],Test B disease control rating,[1],90%
same,Test E disease control rating,[2],55%
same,Test G disease control rating,[3],0%
same,Test C disease control rating,[4],0%
same,Test F disease control rating,[5],95%
same,Test A disease control rating,[6],39%
same,Test D disease control rating,[7],80%
CON(C)c1cnn(C)c(=O)c1C(=O)Nc1ccc(OC(F)(F)F)cc1 [Compound 135],Test B disease control rating,[1],27%
same,Test E disease control rating,[2],2%
same,Test G disease control rating,[3],0%
same,Test C disease control rating,[4],0%
same,Test F disease control rating,[5],0%
same,Test A disease control rating,[6],0%
same,Test D disease control rating,[7],0%
Cn1ncc(O)c(C(=O)Nc2ccccc2C(F)(F)F)c1=O [Compound 122],Test B disease control rating,[1],98%
same,Test E disease control rating,[2],96%
same,Test G disease control rating,[3],96%
same,Test C disease control rating,[4],0%
same,Test F disease control rating,[5],86%
same,Test A disease control rating,[6],0%
same,Test D disease control rating,[7],95%
Cn1ncc(S(C)(=O)=O)c(C(=O)Nc2ccc(OC(F)(F)F)cc2)c1=O [Compound 111],Test B disease control rating,[1],0%
same,Test E disease control rating,[2],93%
same,Test G disease control rating,[3],0%
same,Test C disease control rating,[4],0%
same,Test F disease control rating,[5],96%
same,Test A disease control rating,[6],98%
same,Test D disease control rating,[7],9%
Cn1ncc(O)c(C(=O)Nc2ccc(OC(F)(F)F)cc2Cl)c1=O [Compound 142],Test B disease control rating,[1],99%
same,Test E disease control rating,[2],77%
same,Test G disease control rating,[3],98%
same,Test C disease control rating,[4],26%
same,Test F disease control rating,[5],99%
same,Test A disease control rating,[6],71%
same,Test D disease control rating,[7],92%
Cn1ncc([O-])c(C(=O)Nc2ccc(S(F)(F)(F)(F)F)cc2)c1=O.[Na+] [Compound 113],Test B disease control rating,[1],96%
same,Test E disease control rating,[2],79%
same,Test G disease control rating,[3],90%
same,Test C disease control rating,[4],0%
same,Test F disease control rating,[5],94%
same,Test A disease control rating,[6],73%
same,Test D disease control rating,[7],81%
